Source: the supplement of paper PMC10307832

Key:
Experiment in all cases: relative viability (nuclei count vs DMSO), 5 days (fraction); higher = more cells survive
Tozasertib + Luminespib = compound: Cc1cc(Nc2cc(N3CCN(C)CC3)nc(Sc3ccc(NC(=O)C4CC4)cc3)n2)n[nH]1 [Tozasertib] + CCNC(=O)c1noc(-c2cc(C(C)C)c(O)cc2O)c1-c1ccc(CN2CCOCC2)cc1 [Luminespib] (partner 0.01 µM)
In short: (§1)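 Relative viability divides the nuclei count in treated wells by that in vehicle wells. Lung cancer cell lines were seeded in 1536-well plates, dosed by pin tool the next day, and fixed and stained after 5 days in one step with final 0.05% Triton X-100, 1% formaldehyde and 1 ug/ml Hoechst. Dosing was a single drug or a fixed anchor-drug dose plus five library-drug doses (not always all listed) in √10 steps, and values are medians of duplicate plates imaged at 4×.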

Tozasertib + OSI-027 = compound: Cc1cc(Nc2cc(N3CCN(C)CC3)nc(Sc3ccc(NC(=O)C4CC4)cc3)n2)n[nH]1 [Tozasertib] + COc1cccc2cc(-c3nc([C@H]4CC[C@H](C(=O)O)CC4)n4ncnc(N)c34)[nH]c12 [OSI-027] (partner 0.5 µM)
In short: as §1

Tozasertib + Alpelisib = compound: Cc1cc(Nc2cc(N3CCN(C)CC3)nc(Sc3ccc(NC(=O)C4CC4)cc3)n2)n[nH]1 [Tozasertib] + Cc1nc(NC(=O)N2CCC[C@H]2C(N)=O)sc1-c1ccnc(C(C)(C)C(F)(F)F)c1 [Alpelisib] (partner 2 µM)
In short: as §1

Tozasertib + Phenformin = compound: Cc1cc(Nc2cc(N3CCN(C)CC3)nc(Sc3ccc(NC(=O)C4CC4)cc3)n2)n[nH]1 [Tozasertib] + N=C(N)NC(=N)NCCc1ccccc1 [Phenformin] (partner 250 µM)
In short: as §1

Tozasertib + Lapatinib = compound: Cc1cc(Nc2cc(N3CCN(C)CC3)nc(Sc3ccc(NC(=O)C4CC4)cc3)n2)n[nH]1 [Tozasertib] + CS(=O)(=O)CCNCc1ccc(-c2ccc3ncnc(Nc4ccc(OCc5cccc(F)c5)c(Cl)c4)c3c2)o1 [Lapatinib] (partner 2 µM)
In short: as §1

Cell Line | relative viability (Tozasertib + Luminespib; first compound 0.004 µM) | relative viability (Tozasertib + Luminespib; first compound 0.01265 µM) | relative viability (Tozasertib + Luminespib; first compound 0.04 µM) | relative viability (Tozasertib + Luminespib; first compound 0.1265 µM) | relative viability (Tozasertib + OSI-027; first compound 0.004 µM) | relative viability (Tozasertib + OSI-027; first compound 0.04 µM) | relative viability (Tozasertib + OSI-027; first compound 0.1265 µM) | relative viability (Tozasertib + Alpelisib; first compound 0.004 µM) | relative viability (Tozasertib + Alpelisib; first compound 0.01265 µM) | relative viability (Tozasertib + Alpelisib; first compound 0.04 µM) | relative viability (Tozasertib + Alpelisib; first compound 0.1265 µM) | relative viability (Tozasertib + Phenformin; first compound 0.004 µM) | relative viability (Tozasertib + Phenformin; first compound 0.01265 µM) | relative viability (Tozasertib + Phenformin; first compound 0.04 µM) | relative viability (Tozasertib + Phenformin; first compound 0.1265 µM) | relative viability (Tozasertib + OSI-027; first compound 0.01265 µM) | relative viability (Tozasertib + Lapatinib; first compound 0.004 µM) | relative viability (Tozasertib + Lapatinib; first compound 0.01265 µM) | relative viability (Tozasertib + Lapatinib; first compound 0.04 µM) | relative viability (Tozasertib + Lapatinib; first compound 0.1265 µM)
LCLC-103H | 0.935 | 1.05 | 1.08 | 0.72 | 0.504 | 0.503 | 0.388 | 0.817 | 0.895 | 0.952 | 0.994 | 0.373 | 0.343 | 0.323 | 0.359 |  |  |  |  | 
HCC-44 | 1.04 | 0.829 | 0.565 | 0.796 | 0.605 | 0.606 | 0.341 | 0.779 | 0.773 | 0.836 |  | 0.184 | 0.251 | 0.184 | 0.104 | 0.485 | 1.06 | 1.02 | 1.06 | 0.862
NCI-H2085 | 0.473 | 0.428 | 0.442 | 0.457 | 0.769 | 0.828 | 0.695 | 0.999 | 0.963 | 0.873 | 0.804 | 0.759 | 0.744 | 0.731 |  | 0.726 | 0.784 | 0.715 | 0.774 | 0.446
RERF-LC-KJ | 1.3 | 1.21 | 1.2 | 0.983 |  | 0.59 | 0.484 | 0.897 | 0.761 | 0.914 | 0.599 | 0.443 | 0.425 | 0.485 | 0.435 | 0.597 | 0.86 | 0.838 | 0.925 | 0.804
NCI-H1355 | 0.643 | 0.738 | 0.689 | 0.58 | 0.368 | 0.458 | 0.343 | 0.851 | 0.804 | 0.96 | 0.78 | 0.469 | 0.424 | 0.459 | 0.367 | 0.383 | 0.934 | 1.02 | 0.987 | 0.791
NCI-H522 | 1.36 | 1.48 | 1 | 0.896 | 0.773 | 0.783 | 0.628 |  |  |  |  | 0.687 | 0.62 | 0.676 | 0.593 | 0.838 |  |  |  | 
LU99A | 0.225 | 0.249 | 0.27 | 0.218 | 0.307 | 0.269 | 0.269 | 0.648 | 0.507 | 0.463 | 0.267 | 0.903 | 0.819 | 0.773 | 0.646 | 0.278 | 1.07 | 0.749 | 0.742 | 0.467
LOU-NH91 |  | 0.354 | 0.33 | 0.336 |  | 0.763 | 0.728 |  | 0.736 | 0.731 | 0.694 |  | 0.672 | 0.797 | 0.559 | 0.675 | 0.789 | 0.742 | 0.803 | 0.638
NCI-H3122 | 0.0858 | 0.0879 | 0.1 | 0.101 | 1.04 | 0.967 | 0.928 | 0.808 | 0.809 | 0.847 | 0.749 | 0.38 | 0.346 | 0.366 | 0.312 | 0.915 | 0.974 | 0.992 | 1.02 | 1.04
